The text below walks through data of patent US20220339135A1, “COMPOSITIONS AND METHODS FOR MODULATING AN INFLAMMATORY RESPONSE” (Enzychem Lifesciences Corporation, priority 2019, published 2022).

Entries after “also recorded” stand apart in the source; their conditions may differ.

In assay [1] the test system is LPS-induced acute lung injury. Kind of assay: LPS-induced acute lung injury (ALI) in mice. It is filed as in vivo. The conditions noted are these: for number of neutrophils in BALF: LPS-treated mice, co-treatment.
In assay [2] the test system is STZ-induced hepatic steatosis. Nature of the assay: STZ-induced mice model (lipid uptake, hepatic steatosis). It is filed as in vivo. The settings on record: for body weight versus STZ treated mice / hepatic steatosis / liver damage (histology): co-treated 3 days. An excerpt: Eight-week-old Balb/c male mice were purchased from Koatech Co. (Pyeongtaek, Republic of Korea) and maintained in for 7 days in order to adapt to the environment. The experimental protocol was approved by the Animal Care and Use Committee of Korea Research Institute of Bioscience and Biotechnology Institution (KRIBB-AEC-17146) and performed in accordance with the National Institutes of Health Guidelines for the care and use of laboratory animals and with the Korean national laws for animal welfare. The mice were randomized initially into two experimental groups as follows: Non-treated group as a control; STZ treated group. STZ treated groups received an intraperitoneal injection of 200 mg/kg BW STZ, which was dissolved in citrate buffer (pH 4.5), while the animals belonging to the control group received vehicle injection. The next day following STZ administration, the induction of diabetes in all STZ-treated mice was confirmed the glucose level in blood by a glucometer (ACCU-CHEK, Roche diagnostics Inc., Seoul, Korea). All mice with blood glucose levels higher than 200 mg/dL in fasting state were considered acute diabetes. After the confirmation of the induction of diabetes, the mice of the experimental group were further randomized into three groups: STZ alone treated group; high dose of PLAG treated group; a low dose of PLAG treated group. PLAG was injected into mice for 3 days. Control and STZ alone treated groups were administrated orally to mice with the same PBS for 3 days. Following sacrifice, LPL activity was measured in plasma using a quantitative LPL activity assay kit (Cell Biolabs, Inc, San Diego, Calif.). Diluted samples and standards were loaded to the fluorescence microtiter plate, and LPL fluorometric substrate was added. After 30 minutes, the reaction stopped by stopping the solution. After 15 minutes, the sample fluorescence measured by a fluorescence microplate reader. The relative amounts of Apolipoprotein B48 (ApoB48) of portal vein plasma were evaluated by western blot analysis. […] The protein extracts were immunoblotted with the ApoB48 antibody (Abcam, MA, USA). Eight-week-old Balb/c male mice were purchased from Koatech Co. (Pyeongtaek, Republic of Korea) and maintained in for 7 days in order to adapt to the environment. The experimental protocol was approved by the Animal Care and Use Committee of Korea Research Institute of Bioscience and Biotechnology Institution (KRIBB-AEC-17146) and performed in accordance with the National Institutes of Health Guidelines for the care and use of laboratory animals and with the Korean national laws for animal welfare. The mice were randomized initially into 2 experimental groups as follows: Non-treated group as a control; STZ treated group. STZ treated groups received an intraperitoneal injection of 200 mg/kg BW STZ, which was dissolved in citrate buffer (pH 4.5), while the animals belonging to the control group received vehicle injection. The next day following STZ administration, the induction of diabetes in all STZ-treated mice was confirmed the glucose level in blood by a glucometer (ACCU-CHEK, Roche diagnostics Inc., Seoul, Korea). All mice with blood glucose levels higher than 200 mg/dL in fasting state were considered acute diabetes. After the confirmation of the induction of diabetes, the mice of the experimental group were further randomized into three groups: STZ alone treated group; high dose of PLAG treated group; a low dose of PLAG treated group. One day after STZ injection, mice were orally injected with PLAG for 3 days (FIG. 31A). The dosage and preparation of PLAG were determined according to previous reports. Control and STZ alone treated groups were administrated orally with the same PBS for 3 days. The experiments were carried out according to the methods mentioned above. […] Total RNA was isolated from the muscle of individual mice using TRIzol reagent (Favorgen Biotech, Taiwan). […]

Assay [3] concerns Pseudomonas aeruginosa (PAK) in BALF. Kind of assay: PAK infection of mice, CFU determination in BALF. It is filed as in vivo. The settings on record: PAK-induced pneumonia mice, BALF 2 hours after infection. Here is the method: Pseudomonas aeruginosa (PAK) was grown overnight in LB broth at 37° C. with agitation, and then harvested by centrifugation at 13,000×g for 2 min. The pellet was diluted to yield 1×10^5 colony-forming unit (CFU) per 20 μL of phosphate-buffered saline (PBS) as determined by the optical density at 600 nm. The diluted bacteria were administered to BALB/c mice by intranasal injections. Bronchoalveolar lavage fluid (BALF) samples were then collected 2 hours after infection and serially diluted 1:1,000-1:10,000 with PBS and incubated overnight at 37° C. on LB agar plates. The number of viable bacteria in BALF samples were determined by counting the numbers of colonies formed on the plates.

A further assay relates to PAK in THP-1 cells. Nature of the assay: In vitro phagocytosis of PAK, THP-1 cells. It is filed as cell-based, human. The settings on record: 1 hour after infection. The method, then: For CFU counting-based phagocytosis and bacterial killing assay, PAK was cultured at 37° C. overnight with continuous shaking and was resuspended in PBS. The BMDMs or THP-1 cells were incubated with PAK (MOI, 50) for different time intervals at 37° C. The cells were further cultured in the medium containing 10 μg/ml gentamycin for 30 minutes and then were lysed by 0.5% SDS. The diluted aliquots were spread on LB agar plates, and CFU was counted after incubation of the plates overnight at 37° C.

Assay [4] relates to chemo-radiation and scratch induced oral mucositis. Kind of assay: Chemo-radiation and scratch induced oral mucositis. It is filed as in vivo, mice. The conditions noted are these: PLAG 250 mg/kg oral, n=7. Here is the method:
For radiation therapy, mice received 1 Gy of gamma radiation with mice whole body. Mice were intraperitoneally administered 5-FU (Sigma Aldrich) at 50 mg/kg. For facilitating the risk of infection, mice were anesthetized with 2,2,2-tribromoethanol (150 mg/kg, Sigma Aldrich) by intraperitoneal injection, and then tongue was scratched 0.2 cm wound on a third of side at using the tip of an 18-gauge needle with an equal force and depth. PLAG (Enzychem Lifesciences) was stored in −80° C. refrigerator and was administered orally once with 250 mg/kg. Formulations were aggressively mixed to be cloudiness and were injected within 10 minutes.
The tongue was scratched 0.2 cm wound on a third of side at using the tip of an 18-gauge needle with an equal force and depth on Day 0, 7, 10, and 16. Mice were received 1 Gy of gamma radiation on Day 2 and 5-FU was administered intraperitoneally in a dose of 50 mg/kg on Days 4. For the group receiving PLAG, 250 mg/kg of PLAG was administered orally once daily. To check the oral mucositis, mice were anesthetized with 2,2,2-tribromoethanol (150 mg/kg, Sigma Aldrich) by intraperitoneal injection on Day 7, 10, 14, 18. Each group contained seven mice.

With `CCCCC/C=C\C/C=C\CCCCCCCC(=O)OC(CO)COC(=O)CCCCCCCCCCCCCCC` (centres unmarked) [PLH, palmitic linoleic hydroxyl glycerol, reference compound], the “number of neutrophils in BALF” value in assay [1] was “no effect”. For the same compound, in assay [2], the “body weight versus STZ treated mice” value is on record as “no difference” and the “hepatic steatosis / liver damage (histology)” value is on record as “not altered”. The “bacterial clearance of PAK in BALF” value in assay [3] was “didn't; also recorded: did not”. Moreover, in the assay on PAK in THP-1 cells, the “phagocytosis of PAK by THP-1 cells” value is “little effect”.

With `CCCCC/C=C\C/C=C\CCCCCCCC(=O)OC(COC(C)=O)COC(=O)CCCCCCCCCCCCCCC` (racemic) [PLAG, 1-palmitoyl-2-linoleoyl-3-acetylglycerol], the “survival rate after 18 days” value in assay [4] came to 85%. For the same compound, in assay [1] (16 hours after LPS, PLAG 250 mg/kg oral), the “inflammatory cell infiltration into the alveolar space (H&E)” value is on record as “considerably reduced”. Also, the “mRNA expression of MIP-2, S100A8, S100A9 increased by LPS” value in assay [1] (BALF cells, 16 hours) is recorded as “significantly attenuated”. The “Evans blue-stained albumin in lungs” value in assay [1] (LPS 25 mg/kg intranasal, PLAG 250 mg/kg oral) is “significantly decreased”. Moreover, in assay [1], the “number of neutrophils in BALF” value was “more rapidly return to homeostasis; also recorded: dramatically reduced”. Besides, in assay [1] (vs LPS alone, PLAG 250 mg/kg oral), the “MPO activity of isolated lung tissue” value was “significantly decreased”. Further, in assay [1] (without LPS), the “neutrophil migration, PLAG treatment alone” value was “no effect”. The “STZ-induced empty fat vacuoles in liver (H&E)” value in assay [2] (250 mg/kg vs 50 mg/kg) is “decreased STZ-induced empty fat vacuoles more effectively than 50 mg/kg”. The “plasma LPL activity” value in assay [2] (STZ 200 mg/kg, PLAG 3 days) was “recovered”. Besides, in assay [2] (STZ/PLAG treated group), the “muscle TG content” value is “recovered”. In addition, in assay [2], the “body weight versus STZ treated mice” value is given as “less body weight loss” and the “hepatic steatosis / liver damage (histology)” value is given as “attenuated”. In addition, the “ApoB48 level in portal vein blood” value in assay [2] (dose-dependent) was “markedly reduced”. Moreover, in assay [3], the “bacterial clearance of PAK in BALF” value is listed as “showed the bacterial clearance activity; also recorded: effectively eliminated”. The “phagocytosis of PAK by THP-1 cells” value with PAK in THP-1 cells is reported as “advanced phagocytosis”.
